In patent publication US10851082B2, “Substituted aromatic n-heterocyclic compounds as inhibitors of mitogen-activated protein kinase interacting kinase 1 (MNK1) and 2 (MNK2)” (Northwestern University, priority 2015, dated 2020):
pIC50: −log10 of the molar value. Where two headings read alike, the source gives them in different places.

Legend:
[1] = target: Mnk1 (Homo sapiens (Human), UniProt Q9BUB5); assay: Mnk1 kinase inhibition, ADP-Glo ADP monitoring assay; type: biochemical
Description: (§1) The synthesized compounds then were tested for inhibition of the kinase activity (IC50) of Mnk1 and/or Mnk2 using the ADP monitoring assay for kinases described in Zegzouti, H.; Zdanovskaia, M.; Hsiao, K.; Goueli, S. A., ADP-Glo: A Bioluminescent and homogeneous ADP monitoring assay for kinases.

[2] = target: Mnk2 (Homo sapiens (Human), UniProt Q9HBH9); assay: Mnk2 kinase inhibition, ADP-Glo ADP monitoring assay; type: biochemical
Mnk2, sequence (Q9HBH9 whole entry): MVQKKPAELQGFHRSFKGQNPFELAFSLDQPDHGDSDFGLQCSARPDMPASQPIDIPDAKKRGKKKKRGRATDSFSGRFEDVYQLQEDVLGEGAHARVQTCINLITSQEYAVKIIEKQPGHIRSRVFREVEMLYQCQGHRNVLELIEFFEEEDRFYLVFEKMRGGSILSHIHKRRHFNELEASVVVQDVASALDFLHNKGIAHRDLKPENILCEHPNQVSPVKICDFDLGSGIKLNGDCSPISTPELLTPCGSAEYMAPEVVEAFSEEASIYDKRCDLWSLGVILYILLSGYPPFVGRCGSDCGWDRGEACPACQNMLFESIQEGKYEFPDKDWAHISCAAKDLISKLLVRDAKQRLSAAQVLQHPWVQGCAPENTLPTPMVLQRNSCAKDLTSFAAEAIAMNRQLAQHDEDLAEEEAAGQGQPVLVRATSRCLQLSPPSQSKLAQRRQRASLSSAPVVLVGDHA
Description: as §1

[3] = ADP-Glo kinase assay, read-out: Mnk2 IC50
[4] = read-out: Mnk1 inhibition IC50 (+,++,+++)
[5] = ADP-Glo kinase assay, read-out: Mnk2 inhibition IC50 (+,++,+++)
[6] = unit inferred, read-out: Mnk1 IC50
[7] = ADP-Glo kinase assay, unit inferred, read-out: Mnk2 IC50

Mnk1, sequence (Q9BUB5 whole entry): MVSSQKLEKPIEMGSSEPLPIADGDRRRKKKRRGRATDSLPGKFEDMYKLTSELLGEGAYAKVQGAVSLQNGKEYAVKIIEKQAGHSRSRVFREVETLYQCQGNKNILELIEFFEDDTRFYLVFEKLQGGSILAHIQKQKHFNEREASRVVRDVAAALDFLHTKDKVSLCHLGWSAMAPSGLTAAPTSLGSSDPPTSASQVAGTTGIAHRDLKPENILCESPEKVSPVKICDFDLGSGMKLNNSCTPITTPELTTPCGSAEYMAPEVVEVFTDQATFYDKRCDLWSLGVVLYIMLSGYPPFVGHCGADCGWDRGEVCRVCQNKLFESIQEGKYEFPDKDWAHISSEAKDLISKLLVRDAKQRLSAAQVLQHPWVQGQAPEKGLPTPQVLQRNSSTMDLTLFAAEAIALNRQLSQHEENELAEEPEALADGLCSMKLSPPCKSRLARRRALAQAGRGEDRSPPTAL

## c1cnc2ncn(-c3ccnc(NCCc4ccncc4)n3)c2c1 [NUCC-0176138]
[1]; read-out: Mnk1 IC50
  pIC50: 5.07
[2]; [3]
  pIC50: 5.22

## CCOC(=O)c1cnc(NC2CNC(=O)C2)nc1-n1cnc2ccccc21 (stereo not shown) [NUCC-0201889]
[1]; [4]
  pIC50: 5.00 to 6.00
[2]
  pIC50: 5.00 to 6.00

## Fc1ccc(CCNc2ncc(Cl)c(-n3cnc4ccccc43)n2)cc1 [NUCC-0200783]
[1]; [4]
  pIC50: < 5.00
[2]; [5]
  pIC50: > 6.00

## O=C(O)CNc1ncc(Cl)c(-n2cnc3ccccc32)n1 [NUCC-0176361]
[1]
  Mnk1 IC50: no activity
[2]; ADP-Glo kinase assay
  Mnk2 IC50: no activity

## Cc1ccc2c(c1)ncn2-c1nc(NCCc2ccncc2)ncc1Cl [NUCC-0200908]
[1]; [4]
  pIC50: < 5.00
[2]
  pIC50: 5.00 to 6.00

## O=C(Nc1cc(C(F)(F)F)cc(C(F)(F)F)c1)Nc1nccc(-n2cnc3ccccc32)n1 [NUCC-0176362]
[1]
  Mnk1 IC50: no activity
[2]; ADP-Glo kinase assay
  Mnk2 IC50: no activity

## NC1CC(Oc2ncc(Cl)c(-n3cnc(-c4ccc(Cl)c(C(F)(F)F)c4)c3)n2)C1 (stereo not shown) [NUCC-0201247, 3-((5-chloro-4-(4-(4-chloro-3-(trifluoromethyl)phenyl)-1H-imidazol-1-yl)pyrimidin-2-yl)oxy)cyclobutanamine]
[1]; [4]
  pIC50: 5.00 to 6.00
[2]
  pIC50: 5.00 to 6.00

## O=C1NCCCCC1Nc1ccnc(-n2cnc3ccccc32)n1 (stereo not shown) [NUCC-0176368]
[1]; read-out: Mnk1 IC50
  pIC50: 4.96
[2]; [3]
  pIC50: 5.28

## Cc1cc2ncn(-c3nc(NCCc4ccncc4)ncc3Cl)c2cc1C [NUCC-0200797]
[1]; [4]
  pIC50: < 5.00
[2]; [5]
  pIC50: > 6.00

## c1ccc2c(c1)ncn2-c1ccnc(NCCc2c[nH]c3ccccc23)n1 [NUCC-0196260]
[1]; [6]
  pIC50: 6.30
[2]; [7]
  pIC50: 7.05

## FC(F)(F)c1cnc(NC23CC(C2)C3)nc1-n1cnc2ccccc21 [NUCC-0201888]
[1]; [4]
  pIC50: > 6.00
[2]; [5]
  pIC50: > 6.00

## Clc1cnc(NC2C3CC2C3)nc1-n1cnc2ccccc21 (stereo not shown) [NUCC-0201136]
[1]; [4]
  pIC50: 5.00 to 6.00
[2]
  pIC50: 5.00 to 6.00

## NC1CC(Oc2ncc(C3CC3)c(-n3cnc4ccccc43)n2)C1 (stereo not shown) [NUCC-0201900]
[1]; [4]
  pIC50: > 6.00
[2]; [5]
  pIC50: > 6.00

## NC1CC(Oc2ncc(Cl)c(-n3cnc(C(F)(F)F)c3)n2)C1 (stereo not shown) [NUCC-0201664]
[1]; [4]
  pIC50: > 6.00
[2]
  pIC50: 5.00 to 6.00

## NC(=O)c1cc(-n2cnc3ccccc32)nc(NCCc2ccncc2)n1 [NUCC-0196265]
[1]; [6]
  pIC50: 5.80
[2]; [7]
  pIC50: 6.05

## c1ccc2c(c1)ncn2-c1nccc(NCCc2c[nH]c3ccccc23)n1 [NUCC-0196261]
[1]; [6]
  pIC50: 6.04
[2]; [7]
  pIC50: 6.96

## FC(F)(F)c1cnc(OC2CCNC2)nc1-n1cnc2ccccc21 (stereo not shown) [NUCC-0201897]
[1]; [4]
  pIC50: > 6.00
[2]; [5]
  pIC50: > 6.00

## FC(F)(F)c1cc(NC(=S)Nc2nccc(-n3cnc4ccccc43)n2)cc(C(F)(F)F)c1 [NUCC-0176363]
[1]
  Mnk1 IC50: no activity
[2]; ADP-Glo kinase assay
  Mnk2 IC50: no activity

## N#Cc1cnc(NCCc2ccncc2)nc1-n1nnc2ccccc21 [NUCC-0200802]
[1]; [4]
  pIC50: < 5.00
[2]; [5]
  pIC50: < 5.00

## Nc1cc(-n2cnc3ccccc32)nc(NCCc2ccncc2)n1 [NUCC-0196307]
[1]; [6]
  pIC50: 6.06
[2]; [7]
  pIC50: 6.77

## N#Cc1cnc(NCCc2ccncc2)nc1-n1ccnc1 [NUCC-0196308]
[1]; [6]
  pIC50: 5.68
[2]; [7]
  pIC50: 5.16

## OCCNc1nccc(-n2cnc3ccccc32)n1 [NUCC-0176352]
[1]; read-out: Mnk1 IC50
  pIC50: 6.19
[2]; [3]
  pIC50: 6.77

## N#Cc1cnc(NCCc2ccncc2)nc1-n1cncn1 [NUCC-0196250]
[1]; [6]
  pIC50: < 5.00
[2]; [7]
  pIC50: < 5.00

## OC1CCC(Nc2nccc(-n3cnc4ccccc43)n2)CC1 (stereo not shown) [NUCC-0176145]
[1]; read-out: Mnk1 IC50
  pIC50: 6.40
[2]; [3]
  pIC50: 7.28

## c1ccc2c(c1)ncn2-c1cc(NCCc2ccncc2)ncn1 [NUCC-0176284]
[1]; read-out: Mnk1 IC50
  pIC50: 5.59
[2]; [3]
  pIC50: 5.92

## O=C(O)C1CC(Oc2ncc(Cl)c(-n3cnc4ccccc43)n2)C1 (stereo not shown) [NUCC-0201891]
[1]; [4]
  pIC50: 5.00 to 6.00
[2]; [5]
  pIC50: > 6.00
